According to ChEMBL document CHEMBL1122330, “Studies on v-triazoles. 7. Antiallergic 9-oxo-1H,9H-benzopyrano[2,3-d]-v-triazoles” (1983):

Columns and labels:
Assay type in all cases: functional
Rattus norvegicus [1] = assay: Inhibition of passive cutaneous anaphylaxis (PCA) in Charles Rivers Sprague-Dawley rat after intravenous administration; value range […]
Rattus norvegicus [2] = assay: Inhibition of passive cutaneous anaphylaxis (PCA) in Charles Rivers Sprague-Dawley rat after intravenous administration
Rattus norvegicus [3] = assay: Inhibition of passive cutaneous anaphylaxis (PCA) in Charles Rivers Sprague-Dawley rat after intravenous administration; value range from 0.3 to 0.5
Rattus norvegicus [4] = assay: Inhibition of passive cutaneous anaphylaxis (PCA) in Charles Rivers Sprague-Dawley rat after intravenous administration; value range from 1.6 to 3.0
Rattus norvegicus [5] = assay: Inhibition of passive cutaneous anaphylaxis (PCA) in Charles Rivers Sprague-Dawley rat after intravenous administration; value range from 4.1 to 5.8
Rattus norvegicus [6] = assay: Inhibition of passive cutaneous anaphylaxis (PCA) in Charles Rivers Sprague-Dawley rat after intravenous administration; value range from 0.1 to 0.4
Rattus norvegicus [7] = assay: Inhibition of passive cutaneous anaphylaxis (PCA) in Charles Rivers Sprague-Dawley rat after intravenous administration; value range from 0.8 to 1.4
Rattus norvegicus [8] = assay: Inhibition of passive cutaneous anaphylaxis (PCA) in Charles Rivers Sprague-Dawley rat after intravenous administration; value range from 0.03 to 0.6
Rattus norvegicus [9] = assay: Inhibition of passive cutaneous anaphylaxis (PCA) in Charles Rivers Sprague-Dawley rat after intravenous administration; value range from 0.4 to 0.9
Rattus norvegicus [10] = assay: Inhibition of passive cutaneous anaphylaxis (PCA) in Charles Rivers Sprague-Dawley rat after intravenous administration; value range from 1.4 to 2.4
Rattus norvegicus [11] = assay: Inhibition of passive cutaneous anaphylaxis (PCA) in Charles Rivers Sprague-Dawley rat after intravenous administration; value range from 0.05 to 0.6
Rattus norvegicus [12] = assay: Inhibition of passive cutaneous anaphylaxis (PCA) in Charles Rivers Sprague-Dawley rat after intravenous administration; value range from 0.8 to 1.6
Rattus norvegicus [13] = assay: Inhibition of passive cutaneous anaphylaxis (PCA) in Charles Rivers Sprague-Dawley rat after intravenous administration; value range from 0.2 to 0.3
Rattus norvegicus [14] = assay: Inhibition of passive cutaneous anaphylaxis (PCA) in Charles Rivers Sprague-Dawley rat after intravenous administration; value range from 1.8 to 2.7
Rattus norvegicus [15] = assay: Inhibition of passive cutaneous anaphylaxis (PCA) in Charles Rivers Sprague-Dawley rat after intravenous administration; value range from 1.4 to 2.1
Rattus norvegicus [16] = assay: Inhibition of passive cutaneous anaphylaxis (PCA) in Charles Rivers Sprague-Dawley rat after intravenous administration; value range from 1.1 to 1.8
Rattus norvegicus [17] = assay: Inhibition of passive cutaneous anaphylaxis (PCA) in Charles Rivers Sprague-Dawley rat after intravenous administration; value range from 0.8 to 1.5
Rattus norvegicus [18] = assay: Inhibition of passive cutaneous anaphylaxis (PCA) in Charles Rivers Sprague-Dawley rat after intravenous administration; value range from 6.2 to 7.8
Rattus norvegicus [19] = assay: Inhibition of passive cutaneous anaphylaxis (PCA) in Charles Rivers Sprague-Dawley rat after intravenous administration; value range from 1.9 to 22.5
Rattus norvegicus [20] = assay: Inhibition of passive cutaneous anaphylaxis (PCA) in Charles Rivers Sprague-Dawley rat after intravenous administration; value range from 0.3 to 0.8
Rattus norvegicus [21] = assay: Inhibition of passive cutaneous anaphylaxis (PCA) in Charles Rivers Sprague-Dawley rat after intravenous administration; value range from 1.5 to 2.9

`COc1ccc2oc3nnnc-3c(O)c2c1` showed an ED50 (Rattus norvegicus [1]) of 1.7 mg/kg.

`CCCc1ccc(OC)c2c(O)c3nnnc-3oc12` gave an ED50 (Rattus norvegicus [2]) of over 10 mg/kg.

In the case of `COc1ccc2c(O)c3nnnc-3oc2c1C`, the ED50 (Rattus norvegicus [3]) is reported as 0.4 mg/kg.

In the case of `Oc1c2nnnc-2oc2ccc3c(c12)CCCC3`, the ED50 (Rattus norvegicus [4]) is reported as 2.1 mg/kg.

Compound `Cc1ccc2oc3nnnc-3c(O)c2c1` has an ED50 (Rattus norvegicus [5]) of 5 mg/kg.

Work on `Cc1c(OS(C)(=O)=O)ccc2c(O)c3nnnc-3oc12` yielded an ED50 (Rattus norvegicus [6]) of 0.2 mg/kg.

For `CCCc1c(O)ccc2c(O)c3nnnc-3oc12`, the ED50 (Rattus norvegicus [7]) was 1.1 mg/kg.

`COc1ccc2c(O)c3nnnc-3oc2c1` gave an ED50 (Rattus norvegicus [8]) of 0.3 mg/kg.

With `Cc1ccc2oc3nnnc-3c(O)c2c1C` the ED50 (Rattus norvegicus [9]) was 0.6 mg/kg.

`Oc1ccc2c(O)c3nnnc-3oc2c1` showed an ED50 (Rattus norvegicus [10]) of 1.8 mg/kg.

Compound `Cc1ccc2c(O)c3nnnc-3oc2c1C` has an ED50 (Rattus norvegicus [11]) of 0.3 mg/kg.

`Cc1cc(C)c2c(O)c3nnnc-3oc2c1C` was tested, and the ED50 (Rattus norvegicus [12]) was 1.2 mg/kg.

For `CS(=O)(=O)Oc1ccc2c(O)c3nnnc-3oc2c1`, the ED50 (Rattus norvegicus [13]) was 0.2 mg/kg.

With `Cc1c(O)ccc2c(O)c3nnnc-3oc12` the ED50 (Rattus norvegicus [14]) was 2.2 mg/kg.

Work on `Oc1cccc2oc3nnnc-3c(O)c12` yielded an ED50 (Rattus norvegicus [15]) of 1.7 mg/kg.

Work on `Oc1c2nnnc-2oc2ccccc12` yielded an ED50 (Rattus norvegicus [16]) of 1.4 mg/kg.

For `CCCc1c(OC)ccc2c(O)c3nnnc-3oc12`, the ED50 (Rattus norvegicus [17]) was 1 mg/kg.

For `CCCc1ccc(O)c2c(O)c3nnnc-3oc12`, the ED50 (Rattus norvegicus [18]) was 7 mg/kg.

`Cc1cc2oc3nnnc-3c(O)c2cc1C` gave an ED50 (Rattus norvegicus [3]) of 0.4 mg/kg.

Work on `COc1cccc2oc3nnnc-3c(O)c12` yielded an ED50 (Rattus norvegicus [19]) of 3.5 mg/kg.

`Oc1c2nnnc-2oc2cc3c(cc12)CCCC3` showed an ED50 (Rattus norvegicus [20]) of 0.6 mg/kg.

In the case of `O=C([O-])c1cc(=O)c2c(OCC(O)COc3cccc4oc(C(=O)[O-])cc(=O)c34)cccc2o1.[Na+].[Na+]` [CROMOLYN SODIUM], the ED50 (Rattus norvegicus [21]) is reported as 2 mg/kg.
